Source: ChEMBL document CHEMBL4043289, “Fragment-Based Drug Discovery of Inhibitors of Phosphopantetheine Adenylyltransferase from Gram-Negative Bacteria” (J Med Chem, 2018)
In brackets after ≈: the same amount, converted by molar mass. Activity calls are given as the source filed them. The calls are words filed in the database; no cut-off is given here.

Tests used:
[1] = system: Escherichia coli; test: Binding affinity to Escherichia coli C-terminal His-tagged PPAT expressed in Escherichia coli assessed as change in melting temperature by SYPRO orange dye-based DSF method
[2] = Inhibition of Escherichia coli C-terminal His-tagged PPAT expressed in Escherichia coli using 4'-phosphopantetheine as substrate preincubated for 5 mins followed by substrate and pyrophosphatase addition measured after 30 mins by malachite green reagent-based colorimetric method
[3] = Inhibition of Pseudomonas aeruginosa C-terminal His-tagged PPAT expressed in Escherichia coli using 4'-phosphopantetheine as substrate preincubated for 5 mins followed by substrate and pyrophosphatase addition measured after 30 mins by malachite green reagent-based colorimetric method
[4] = system: Escherichia coli; test: Inhibition of Escherichia coli C-terminal His-tagged PPAT V135I mutant using 4'-phosphopantetheine as substrate preincubated for 20 mins followed by substrate and pyrophosphatase addition by malachite green reagent-based assay
[5] = system: Escherichia coli; test: Selectivity ratio of IC50 for Escherichia coli C-terminal His-tagged PPAT M74L mutant to IC50 for Escherichia coli C-terminal His-tagged PPAT
[6] = system: Escherichia coli; test: Inhibition of Escherichia coli C-terminal His-tagged PPAT H138L mutant using 4'-phosphopantetheine as substrate preincubated for 20 mins followed by substrate and pyrophosphatase addition by malachite green reagent-based assay
[7] = Inhibition of Escherichia coli C-terminal His-tagged PPAT expressed in Escherichia coli using 10 times 4'-phosphopantetheine as substrate preincubated for 5 mins followed by substrate and pyrophosphatase addition measured after 30 mins by malachite green reagent-based colorimetric method
[8] = system: Escherichia coli; test: Ratio of IC50 for Escherichia coli C-terminal His-tagged PPAT expressed in Escherichia coli using 10 times 4'-phosphopantetheine as substrate to IC50 for Escherichia coli C-terminal His-tagged PPAT expressed in Escherichia coli using 4'-phosphopantetheine as substrate
[9] = system: Escherichia coli; test: Antibacterial activity against tolC deficient Escherichia coli BW25113 after 20 hrs by broth microdilution method; assay type: functional; conditions: for MIC: BW25113, 20 h
[10] = (§1) Binding affinity to Escherichia coli PPAT by SPR method
[11] = system: Escherichia coli; test: as §1
[12] = biological target: T1, Bifunctional coenzyme A synthase (Homo sapiens) (UniProt Q13057); test: Inhibition of human PPAT up to 500 uM
T1 sequence (whole entry): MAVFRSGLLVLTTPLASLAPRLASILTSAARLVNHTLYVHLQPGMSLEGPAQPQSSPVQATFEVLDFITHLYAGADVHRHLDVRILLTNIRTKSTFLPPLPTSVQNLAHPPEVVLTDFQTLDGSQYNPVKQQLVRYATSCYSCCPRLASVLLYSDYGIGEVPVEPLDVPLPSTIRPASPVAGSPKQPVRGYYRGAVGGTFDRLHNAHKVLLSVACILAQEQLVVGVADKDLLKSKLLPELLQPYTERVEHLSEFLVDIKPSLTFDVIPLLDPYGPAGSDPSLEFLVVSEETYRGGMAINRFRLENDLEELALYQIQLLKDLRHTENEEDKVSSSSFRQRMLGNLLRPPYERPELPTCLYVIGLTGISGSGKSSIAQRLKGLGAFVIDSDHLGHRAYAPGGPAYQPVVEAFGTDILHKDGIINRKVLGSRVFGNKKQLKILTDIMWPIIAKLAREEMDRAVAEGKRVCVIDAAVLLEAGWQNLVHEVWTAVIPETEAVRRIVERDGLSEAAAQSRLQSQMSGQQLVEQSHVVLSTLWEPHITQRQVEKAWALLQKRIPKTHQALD

[13] = Solubility of the compound; assay type: physicochemical
[14] = Lipophilicity, log D of the compound at pH 7.4; assay type: physicochemical; conditions: buffer
[15] = system: Escherichia coli; test: Antibacterial activity against Escherichia coli ATCC 25922 after 20 hrs by broth microdilution method; assay type: functional
[16] = Dissociation rate constant to Escherichia coli PPAT by SPR method
[17] = Inhibition of Staphylococcus aureus C-terminal His-tagged PPAT expressed in Escherichia coli using 4'-phosphopantetheine as substrate preincubated for 5 mins followed by substrate and pyrophosphatase addition measured after 30 mins by malachite green reagent-based colorimetric method
[18] = biological target: T2, Bifunctional coenzyme A synthase (Homo sapiens, UniProt Q13057); test: Inhibition of human PPAT
T2 sequence (Q13057 whole entry): T1 sequence (whole entry)

[19] = Selectivity ratio of IC50 for human PPAT to IC50 for Escherichia coli C-terminal His-tagged PPAT
[20] = system: Escherichia coli; test: Inhibition of Escherichia coli C-terminal His-tagged PPAT expressed in Escherichia coli up to 500 uM using 4'-phosphopantetheine as substrate preincubated for 5 mins followed by substrate and pyrophosphatase addition measured after 30 mins by malachite green reagent-based colorimetric method

| SMILES | IC50 [2] [µM] | IC50 [3] [nM] | other results |
| --- | --- | --- | --- |
| COc1ccc2[nH]cc(CCNC(=O)C(C)(C)C)c2c1 | 199 |  | ΔTm [1]: 3.1 °C |
| C[C@@H](Nc1ccc2[nH]cnc2n1)c1cccc(Cl)c1 | 401 | > 500000 |  |
| COC(=O)CC(Nc1nc2[nH]c(C)cc(=O)n2n1)c1cccc(Cl)c1 (centres undefined) | 2.5 | 490 |  |
| CC(C)CNC(=O)[C@@H](Cc1cnc[nH]1)NC(=O)[C@H](CCC(=O)O)NC(=O)OC1c2ccccc2-c2ccccc21 |  |  | inhibition [4]: Active; Ratio IC50 [5]: 25; inhibition [6]: Active |
| Cc1cc(=O)n2nc(NC(C)c3cccc(Cl)c3)nc2[nH]1 (racemic) | 0.76 | 1400 | IC50 [7]: 3200 nM; Ratio IC50 [8]: 4.2 |
| CNC(=O)CC(Nc1nc2[nH]c(C)cc(=O)n2n1)c1cccc(Cl)c1 (centres undefined) | 15 | 10000 |  |
| Oc1cccc2[nH]c(CCc3cccc(Cl)c3)nc12 | 0.25 | 4600 | MIC [9]: 32 µg/mL (≈ 117 µM) |
| Cc1cc(=O)n2nc(N[C@H](C)c3ccccc3)nc2[nH]1 | 6.4 |  |  |
| Cc1cc(=O)n2nc(N[C@H](CO)c3cccc(Cl)c3)nc2[nH]1 | 0.55 | 660 |  |
| Cc1cc(=O)n2nc(N[C@H](CC#N)c3cccc(Cl)c3)nc2[nH]1 | 0.037 | 49 | Kd [10]: 9 nM; Ka [11]: 23 ×10⁵ /M/s; inhibition [12]: inactive; solubility [13]: > 300 µg/mL; logD [14]: 1.2; Activity [15]: inactive; MIC [9]: 16 µg/mL (≈ 48.7 µM); koff [16]: 0.021 s⁻¹; IC50 [17]: > 500 µM |
| CN1C(=O)CCC(c2nc3c(O)cccc3[nH]2)C1c1ccccc1 (centres undefined) | 0.32 | 25000 |  |
| Cc1cc(=O)n2nc(NCc3cccc(Cl)c3)nc2[nH]1 | 7.6 |  | IC50 [7]: 43000 nM; Ratio IC50 [8]: 5.7 |
| Cc1cc(=O)n2nc(N[C@H](CCO)c3cccc(Cl)c3)nc2[nH]1 | 0.24 | 2000 | IC50 [7]: 440 nM; Ratio IC50 [8]: 1.8 |
| Cc1cc(=O)n2nc(NC(CC(=O)O)c3cccc(Cl)c3)nc2[nH]1 (centres undefined) | 0.2 | 1100 |  |
| NCc1ccc2ccnc(N)c2c1 | 1080 |  |  |
| Cc1ccc2[nH]c(N[C@H](CC#N)c3cccc(Cl)c3)nc2n1 | 0.056 | 64 | Kd [10]: 10 nM; Ka [11]: 13 ×10⁵ /M/s; logD [14]: 3.3; Activity [15]: inactive; MIC [9]: 4 µg/mL (≈ 12.8 µM); koff [16]: 0.013 s⁻¹ |
| Cc1ccc2c(ncn2Cc2ccccc2)n1 | 19 |  |  |
| Cc1ccc2c(ncn2Cc2cccc(Cl)c2)n1 | 4.3 |  |  |
| Cc1ccc2oc(N[C@H](C)c3cccc(Cl)c3)nc2n1 | 2.4 | 4900 |  |

| SMILES | IC50 [2] [µM] | IC50 [3] [nM] | other results |
| --- | --- | --- | --- |
| NC1=NC(c2cccc(F)c2)n2c(nc3ccccc32)N1 (centres undefined) | 69 |  | ΔTm [1]: 3.4 °C |
| Nc1ncnc2ncn(Cc3cccc(Cl)c3)c12 | 264 |  | ΔTm [1]: 2.7 °C |
| O=C(NCCCCCNC(=O)c1ccco1)c1ccco1 | 237 |  | ΔTm [1]: 2.9 °C |
| C[C@@H](Nc1nc2c(O)cccc2[nH]1)c1cccc(Cl)c1 | 1.2 | 15000 | IC50 [18]: 11 µM; Ratio IC50 [19]: 9 |
| c1ccc(Cn2cnc3ncccc32)cc1 | 273 |  | ΔTm [1]: 2.3 °C |
| Cc1ccn2nc(N[C@H](C)c3cccc(Cl)c3)nc2n1 | 4.7 | 2600 |  |
| CCc1cc(=O)n2nc(N[C@H](C)c3cccc(Cl)c3)nc2[nH]1 | 0.9 | 2800 |  |
| CC(=O)N1CCC[C@H]1c1nc2c(O)cccc2[nH]1 | 106 | 1900 |  |
| CCCCCNC(=O)CCNC(=O)[C@H](O)C(C)(C)CO |  |  | MIC ([15]; ATCC 25922, 20 h): 64 µg/mL (≈ 222 µM); MIC [9]: 16 µg/mL (≈ 55.5 µM); inhibition [20]: inactive |
| Oc1cccc2[nH]c(C3CCCN3c3cccc(Cl)c3)nc12 (centres undefined) | 0.91 | 34000 |  |
| Cc1cc(=O)n2nc(N[C@@H](C)c3ccccc3)nc2[nH]1 | 120 |  |  |
| Oc1cccc2[nH]c(Cc3noc4ccccc34)nc12 | 1 | 2700 |  |
| Cc1cc(N)n2nc(N[C@H](C)c3cccc(Cl)c3)nc2n1 | 0.41 | 380 |  |
| O=C(O)c1cccc([C@H]2CCC[C@@H]2c2nc3c(O)cccc3[nH]2)c1 (relative stereo) | 0.051 | 25000 |  |
| COc1ccc2c(c1)C(C)(C)C1CC2CN(C(C)=O)C1 (centres undefined) | 37 |  | ΔTm [1]: 5.1 °C |
| Cc1[nH]c2nc(NCc3ccccc3F)nn2c(=O)c1C | 31 |  | ΔTm [1]: 2.5 °C |
| Cc1ccc2sc(N[C@H](C)c3cccc(Cl)c3)nc2n1 | 0.41 | 2300 |  |
| Cc1nc2ccccc2n1Cc1nc2c(O)cccc2[nH]1 | 23 | 130 |  |
| CC(C)(CO)[C@@H](O)C(=O)NCCc1nc2c(O)cccc2[nH]1 | 30 | 114000 | Activity [15]: inactive; Activity [9]: inactive |

| SMILES | IC50 [2] [µM] | IC50 [3] [nM] | other results |
| --- | --- | --- | --- |
| COCC[C@@H](Nc1nc2[nH]c(C)cc(=O)n2n1)c1cccc(Cl)c1 | 2.4 | 11000 |  |
| C[C@@H](Nc1ccc2nccnc2n1)c1cccc(Cl)c1 | 348 | 271000 |  |
| Oc1cccc2[nH]c([C@H]3CCC[C@@H]3c3cccc(Cl)c3)nc12 (relative stereo) | 0.051 | 1600 | Kd [10]: 38 nM; Ka [11]: 1.96 ×10⁵ /M/s; koff [16]: 0.0071 s⁻¹ |
| CC1(C)OC(=O)c2ccccc2[C@H]1n1cncc1C(F)F | 163 |  | ΔTm [1]: 3.8 °C |
| Cc1cc(=O)n2nc(NCc3cccc(Br)c3)nc2[nH]1 | 5.6 |  |  |
| CC(C)(C)Nc1ccc2nnc(C(F)(F)F)n2n1 | > 2500 |  | ΔTm [1]: 2.5 °C |
| Cc1nc(N)n2nc(N[C@H](C)c3cccc(Cl)c3)nc2n1 | 5.9 | 4600 |  |
| Cc1cc(=O)n2nc(NCc3ccccc3)nc2[nH]1 | 77 |  |  |
| CN1C(=O)C[C@H](c2nc3c(O)cccc3[nH]2)[C@H]1c1ccccc1 (relative stereo) | 1 | 11000 |  |
| Oc1cccc2[nH]c(COc3cccc(Cl)c3)nc12 | 1.7 | 14000 |  |
| Oc1cccc2[nH]c(C(F)(F)F)nc12 | 230 | > 500000 | ΔTm [1]: 8.1 °C |
| Cc1ccc2[nH]c(N[C@H](C)c3cccc(Cl)c3)nc2n1 | 0.19 | 610 | logD [14]: 3.3 |
| Cc1cc(C)nc(NS(=O)(=O)c2ccc(N)cc2C)n1 | 74 |  | ΔTm [1]: 8.7 °C |
| OCc1nc2c(O)cccc2[nH]1 | 116 | 108000 |  |
| Cc1cc(=O)n2nc(N[C@H](C)c3cccc(Cl)c3)nc2[nH]1 | 0.25 | 970 | Kd [10]: 170 nM; Ka [11]: 0.16 ×10⁵ /M/s; IC50 [7]: 920 nM; solubility [13]: 68 µg/mL (≈ 224 µM); Ratio IC50 [8]: 3.7; logD [14]: 1.1; koff [16]: 0.0028 s⁻¹ |
| Cc1cc(=O)n2nc(NC(CC(N)=O)c3cccc(Cl)c3)nc2[nH]1 (centres undefined) | 0.45 | 830 |  |
| Cc1cc(=O)n2nc(N[C@H](COC(N)=O)c3cccc(Cl)c3)nc2[nH]1 | 0.25 | 3900 |  |
| Cc1[nH]c2nc(N[C@H](C)c3cccc(Cl)c3)nn2c(=O)c1C | 1.1 | 1700 |  |
